Test [1] deals with Cyclin-dependent kinase 19 (Homo sapiens) (UniProt Q9BWU1). Conditions: Compound concentration 1000.0 nM.
The target of test [2] is Sodium-dependent dopamine transporter (Homo sapiens, UniProt Q01959). To be noted: Compound concentration 10.0 uM.
For test [3], the target named is Cyclin-dependent kinase 2 (Homo sapiens) (UniProt P24941). To be noted: Compound concentration 1000.0 nM.
The target of test [4] is T1, Serine/threonine-protein kinase Nek1 (Homo sapiens) (UniProt Q96PY6).
T1 sequence (whole entry): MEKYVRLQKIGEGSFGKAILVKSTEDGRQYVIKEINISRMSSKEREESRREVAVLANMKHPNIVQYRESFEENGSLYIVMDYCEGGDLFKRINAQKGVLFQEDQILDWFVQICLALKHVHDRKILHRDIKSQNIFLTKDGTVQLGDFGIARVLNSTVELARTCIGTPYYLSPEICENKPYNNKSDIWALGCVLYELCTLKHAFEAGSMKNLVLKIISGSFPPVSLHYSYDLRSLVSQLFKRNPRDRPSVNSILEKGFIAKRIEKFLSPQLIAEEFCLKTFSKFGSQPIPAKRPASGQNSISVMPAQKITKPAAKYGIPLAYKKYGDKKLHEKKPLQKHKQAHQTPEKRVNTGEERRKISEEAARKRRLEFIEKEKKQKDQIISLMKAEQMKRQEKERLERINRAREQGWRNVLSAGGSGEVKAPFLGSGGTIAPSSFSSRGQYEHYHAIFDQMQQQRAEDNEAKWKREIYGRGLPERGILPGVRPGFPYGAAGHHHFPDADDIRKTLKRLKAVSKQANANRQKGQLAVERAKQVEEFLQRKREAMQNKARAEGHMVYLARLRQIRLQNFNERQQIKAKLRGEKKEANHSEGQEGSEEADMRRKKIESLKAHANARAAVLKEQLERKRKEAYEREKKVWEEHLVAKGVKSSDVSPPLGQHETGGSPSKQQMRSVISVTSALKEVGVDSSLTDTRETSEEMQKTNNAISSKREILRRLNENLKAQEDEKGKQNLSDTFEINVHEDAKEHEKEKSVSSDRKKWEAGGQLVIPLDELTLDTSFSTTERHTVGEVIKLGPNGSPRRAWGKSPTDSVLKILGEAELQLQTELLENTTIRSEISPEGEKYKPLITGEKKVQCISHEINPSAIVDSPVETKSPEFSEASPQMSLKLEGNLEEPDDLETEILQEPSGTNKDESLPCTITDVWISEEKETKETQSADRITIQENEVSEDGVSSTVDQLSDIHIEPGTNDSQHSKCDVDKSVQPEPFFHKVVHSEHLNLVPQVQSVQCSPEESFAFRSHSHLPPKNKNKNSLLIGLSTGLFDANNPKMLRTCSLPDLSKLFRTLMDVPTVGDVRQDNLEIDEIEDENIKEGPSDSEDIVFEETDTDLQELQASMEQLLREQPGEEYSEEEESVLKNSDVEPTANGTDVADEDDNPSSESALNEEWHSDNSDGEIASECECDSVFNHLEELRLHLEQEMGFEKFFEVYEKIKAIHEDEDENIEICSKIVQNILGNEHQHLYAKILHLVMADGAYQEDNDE
Conditions: Compound concentration 1000.0 nM.

Test [5] deals with Cyclin-G-associated kinase (Homo sapiens) (UniProt O14976). To be noted: Compound concentration 1000.0 nM.
Test [6] relates to Hepatocyte growth factor receptor (Homo sapiens), P08581 [Y1235D]. To be noted: Compound concentration 1000.0 nM.
Test [7] addresses Casein kinase I isoform alpha (Homo sapiens) (UniProt P48729). Conditions: Compound concentration 1000.0 nM.
The target in test [8] is Ribosomal protein S6 kinase alpha-4 (Homo sapiens) (UniProt O75676). To be noted: Compound concentration 1000.0 nM.
For test [9], the target named is Protein kinase C eta type (Homo sapiens) (UniProt P24723). Conditions: Compound concentration 1000.0 nM.
The target in test [10] is Serine/threonine-protein kinase PLK3 (Homo sapiens) (UniProt Q9H4B4). Conditions: Compound concentration 1000.0 nM.
For test [11], the target named is Serine/threonine-protein kinase TAO1 (Homo sapiens) (UniProt Q7L7X3). To be noted: Compound concentration 1000.0 nM.
The target of test [12] is Phosphatidylinositol 3-kinase catalytic subunit type 3 (Homo sapiens) (UniProt Q8NEB9). Conditions: Compound concentration 1000.0 nM.
For test [13], the target named is Serine/threonine-protein kinase TBK1 (Homo sapiens) (UniProt Q9UHD2). Conditions: Compound concentration 1000.0 nM.
Test [14] has as its target Serine/threonine-protein kinase tousled-like 1 (Homo sapiens) (UniProt Q9UKI8). Conditions: Compound concentration 1000.0 nM.
The subject of test [15] is Mast/stem cell growth factor receptor Kit (Homo sapiens), P10721 [L576P]. Conditions: Compound concentration 1000.0 nM.
Test [16] deals with Serine/threonine-protein kinase NIM1 (Homo sapiens) (UniProt Q8IY84). To be noted: Compound concentration 1000.0 nM.
The target of test [17] is Serine/threonine-protein kinase 17B (Homo sapiens) (UniProt O94768). To be noted: Compound concentration 1000.0 nM.
Test [18] has as its target Fibroblast growth factor receptor 4 (Homo sapiens) (UniProt P22455). To be noted: Compound concentration 1000.0 nM.
Test [19] deals with Phosphatidylinositol 4,5-bisphosphate 3-kinase catalytic subunit delta isoform (Homo sapiens) (UniProt O00329). To be noted: Compound concentration 1000.0 nM.
The target of test [20] is Myosin light chain kinase (Homo sapiens) (UniProt Q32MK0). To be noted: Compound concentration 1000.0 nM.

The source of these data is ChEMBL document CHEMBL4507276 (2021).

Sequence of Serine/threonine-protein kinase TBK1 (Homo sapiens) (Q9UHD2 whole entry): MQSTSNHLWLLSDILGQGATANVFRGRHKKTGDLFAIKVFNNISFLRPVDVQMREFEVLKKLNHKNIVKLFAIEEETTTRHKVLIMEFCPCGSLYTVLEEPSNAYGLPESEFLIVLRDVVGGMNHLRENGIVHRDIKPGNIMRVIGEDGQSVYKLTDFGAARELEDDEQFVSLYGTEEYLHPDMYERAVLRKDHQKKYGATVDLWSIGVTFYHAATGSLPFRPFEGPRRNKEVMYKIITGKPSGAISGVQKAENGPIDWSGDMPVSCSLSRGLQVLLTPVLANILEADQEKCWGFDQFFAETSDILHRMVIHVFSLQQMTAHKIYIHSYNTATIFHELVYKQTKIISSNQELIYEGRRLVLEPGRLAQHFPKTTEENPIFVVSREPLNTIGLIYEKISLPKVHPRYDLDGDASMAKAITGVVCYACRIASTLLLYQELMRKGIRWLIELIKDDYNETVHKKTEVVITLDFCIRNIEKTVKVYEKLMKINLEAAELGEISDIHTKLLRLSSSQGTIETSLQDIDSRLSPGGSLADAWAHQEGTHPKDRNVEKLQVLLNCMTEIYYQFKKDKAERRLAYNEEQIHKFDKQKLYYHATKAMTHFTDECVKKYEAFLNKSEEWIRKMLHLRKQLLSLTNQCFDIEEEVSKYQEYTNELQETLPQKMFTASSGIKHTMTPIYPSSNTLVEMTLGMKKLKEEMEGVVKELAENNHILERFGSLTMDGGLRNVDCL
Sequence of Fibroblast growth factor receptor 4 (Homo sapiens) (P22455 22-802 limits assumed): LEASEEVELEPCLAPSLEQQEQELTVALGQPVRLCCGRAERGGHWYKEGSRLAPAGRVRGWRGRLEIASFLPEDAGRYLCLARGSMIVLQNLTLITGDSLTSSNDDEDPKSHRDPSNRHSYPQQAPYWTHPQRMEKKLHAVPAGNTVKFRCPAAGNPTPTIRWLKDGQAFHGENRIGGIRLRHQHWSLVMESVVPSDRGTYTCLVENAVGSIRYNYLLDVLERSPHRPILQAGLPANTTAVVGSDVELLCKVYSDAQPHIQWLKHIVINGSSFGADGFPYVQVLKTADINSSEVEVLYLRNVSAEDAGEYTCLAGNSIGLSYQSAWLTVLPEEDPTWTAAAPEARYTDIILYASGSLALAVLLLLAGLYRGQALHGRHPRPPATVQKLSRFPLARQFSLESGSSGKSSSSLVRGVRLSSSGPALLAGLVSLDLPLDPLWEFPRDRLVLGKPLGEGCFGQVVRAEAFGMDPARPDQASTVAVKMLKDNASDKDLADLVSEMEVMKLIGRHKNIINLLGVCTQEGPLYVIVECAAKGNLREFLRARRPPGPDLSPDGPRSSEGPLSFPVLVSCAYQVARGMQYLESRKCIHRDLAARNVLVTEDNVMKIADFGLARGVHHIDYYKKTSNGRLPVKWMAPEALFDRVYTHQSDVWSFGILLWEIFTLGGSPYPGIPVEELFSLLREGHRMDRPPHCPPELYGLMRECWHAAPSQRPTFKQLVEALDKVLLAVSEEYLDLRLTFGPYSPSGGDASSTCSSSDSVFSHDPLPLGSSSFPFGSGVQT
Sequence of Serine/threonine-protein kinase PLK3 (Homo sapiens) (Q9H4B4 whole entry, looked up): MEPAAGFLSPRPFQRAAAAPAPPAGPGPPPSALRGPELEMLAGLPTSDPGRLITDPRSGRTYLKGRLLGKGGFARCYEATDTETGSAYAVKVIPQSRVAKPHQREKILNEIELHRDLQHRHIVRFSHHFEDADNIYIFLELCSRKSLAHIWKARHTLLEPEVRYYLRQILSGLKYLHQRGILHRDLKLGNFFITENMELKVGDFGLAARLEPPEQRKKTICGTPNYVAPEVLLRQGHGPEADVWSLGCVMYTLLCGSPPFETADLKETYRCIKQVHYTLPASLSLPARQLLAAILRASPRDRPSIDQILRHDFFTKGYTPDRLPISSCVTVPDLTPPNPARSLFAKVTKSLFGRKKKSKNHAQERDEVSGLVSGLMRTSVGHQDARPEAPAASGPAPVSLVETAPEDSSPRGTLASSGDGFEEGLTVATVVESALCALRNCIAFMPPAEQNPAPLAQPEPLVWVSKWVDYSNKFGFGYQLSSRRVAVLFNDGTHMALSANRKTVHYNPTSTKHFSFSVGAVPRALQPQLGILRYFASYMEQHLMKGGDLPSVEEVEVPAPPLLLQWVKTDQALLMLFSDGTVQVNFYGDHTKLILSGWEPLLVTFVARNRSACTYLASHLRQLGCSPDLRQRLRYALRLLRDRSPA
Sequence of Cyclin-G-associated kinase (Homo sapiens) (O14976 whole entry): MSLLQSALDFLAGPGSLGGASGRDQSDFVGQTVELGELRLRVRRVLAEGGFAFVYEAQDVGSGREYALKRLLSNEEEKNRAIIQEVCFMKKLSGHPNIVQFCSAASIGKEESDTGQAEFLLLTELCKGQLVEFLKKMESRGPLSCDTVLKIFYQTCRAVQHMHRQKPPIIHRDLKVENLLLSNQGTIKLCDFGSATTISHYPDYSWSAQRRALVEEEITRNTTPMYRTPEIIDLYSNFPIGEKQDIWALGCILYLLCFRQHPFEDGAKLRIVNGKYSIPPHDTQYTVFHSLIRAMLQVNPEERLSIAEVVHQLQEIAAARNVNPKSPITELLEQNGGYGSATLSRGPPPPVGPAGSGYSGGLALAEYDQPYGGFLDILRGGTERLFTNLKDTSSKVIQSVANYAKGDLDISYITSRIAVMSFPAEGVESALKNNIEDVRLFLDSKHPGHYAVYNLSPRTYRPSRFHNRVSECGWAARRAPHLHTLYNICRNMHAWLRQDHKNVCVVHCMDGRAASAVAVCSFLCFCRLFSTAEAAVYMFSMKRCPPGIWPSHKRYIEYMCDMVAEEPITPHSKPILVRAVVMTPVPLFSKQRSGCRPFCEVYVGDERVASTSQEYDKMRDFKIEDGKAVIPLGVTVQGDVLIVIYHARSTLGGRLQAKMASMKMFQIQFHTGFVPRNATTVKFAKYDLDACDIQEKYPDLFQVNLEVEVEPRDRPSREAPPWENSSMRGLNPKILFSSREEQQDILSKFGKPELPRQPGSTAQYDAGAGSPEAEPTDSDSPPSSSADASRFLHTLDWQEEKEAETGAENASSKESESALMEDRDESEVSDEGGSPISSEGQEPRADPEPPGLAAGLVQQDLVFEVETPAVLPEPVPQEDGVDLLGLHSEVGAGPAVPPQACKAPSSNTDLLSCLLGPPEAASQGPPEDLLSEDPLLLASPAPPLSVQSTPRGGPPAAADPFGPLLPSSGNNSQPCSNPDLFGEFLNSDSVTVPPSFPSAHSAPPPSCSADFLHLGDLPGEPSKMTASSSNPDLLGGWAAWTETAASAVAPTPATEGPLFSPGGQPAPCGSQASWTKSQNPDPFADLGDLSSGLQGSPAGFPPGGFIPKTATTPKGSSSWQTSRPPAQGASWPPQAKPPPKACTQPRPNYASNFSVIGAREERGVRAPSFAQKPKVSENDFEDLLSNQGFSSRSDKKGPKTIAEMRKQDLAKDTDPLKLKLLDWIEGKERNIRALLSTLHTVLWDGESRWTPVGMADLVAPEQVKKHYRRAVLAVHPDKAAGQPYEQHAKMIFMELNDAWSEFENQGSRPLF
Sequence of Serine/threonine-protein kinase 17B (Homo sapiens) (O94768 whole entry): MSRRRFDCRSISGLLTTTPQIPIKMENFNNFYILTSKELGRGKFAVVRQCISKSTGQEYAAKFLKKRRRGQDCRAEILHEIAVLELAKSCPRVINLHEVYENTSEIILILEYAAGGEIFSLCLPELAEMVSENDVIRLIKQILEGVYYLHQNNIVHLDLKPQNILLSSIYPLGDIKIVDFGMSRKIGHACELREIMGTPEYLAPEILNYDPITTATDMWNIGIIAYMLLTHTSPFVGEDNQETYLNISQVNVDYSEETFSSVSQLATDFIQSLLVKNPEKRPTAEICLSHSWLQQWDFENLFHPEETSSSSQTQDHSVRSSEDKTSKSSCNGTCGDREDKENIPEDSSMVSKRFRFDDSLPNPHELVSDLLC
Sequence of Serine/threonine-protein kinase TAO1 (Homo sapiens) (Q7L7X3 whole entry): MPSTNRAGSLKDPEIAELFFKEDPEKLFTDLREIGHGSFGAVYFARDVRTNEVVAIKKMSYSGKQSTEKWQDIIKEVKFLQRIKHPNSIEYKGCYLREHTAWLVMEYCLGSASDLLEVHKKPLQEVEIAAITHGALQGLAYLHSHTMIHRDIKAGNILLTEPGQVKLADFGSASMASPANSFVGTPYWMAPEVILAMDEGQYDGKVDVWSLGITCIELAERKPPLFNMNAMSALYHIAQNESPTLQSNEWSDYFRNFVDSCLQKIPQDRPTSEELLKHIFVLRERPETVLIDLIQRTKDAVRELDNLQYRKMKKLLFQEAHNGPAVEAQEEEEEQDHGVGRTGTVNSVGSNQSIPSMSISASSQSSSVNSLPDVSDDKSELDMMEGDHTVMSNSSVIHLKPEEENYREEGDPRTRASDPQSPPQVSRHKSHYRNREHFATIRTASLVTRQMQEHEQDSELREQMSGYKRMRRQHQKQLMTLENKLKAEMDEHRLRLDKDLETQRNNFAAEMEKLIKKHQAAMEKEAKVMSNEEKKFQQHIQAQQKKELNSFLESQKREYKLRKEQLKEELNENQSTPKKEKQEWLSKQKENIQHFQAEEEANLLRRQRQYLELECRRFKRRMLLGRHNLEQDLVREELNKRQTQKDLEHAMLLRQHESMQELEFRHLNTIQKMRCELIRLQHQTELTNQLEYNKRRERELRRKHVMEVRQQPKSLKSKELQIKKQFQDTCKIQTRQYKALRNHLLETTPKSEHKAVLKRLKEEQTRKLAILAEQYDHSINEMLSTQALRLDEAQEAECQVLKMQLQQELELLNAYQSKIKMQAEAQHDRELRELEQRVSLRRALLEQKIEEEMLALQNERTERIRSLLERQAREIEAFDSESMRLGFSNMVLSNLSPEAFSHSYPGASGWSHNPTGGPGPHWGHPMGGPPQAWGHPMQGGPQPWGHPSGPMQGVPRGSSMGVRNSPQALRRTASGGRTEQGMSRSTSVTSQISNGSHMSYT

In the case of `CN(C)C(=O)Cn1cc(-c2nc(C3(c4ccc(-c5cnc(N)nc5)cc4)CC3)no2)cn1` [BI 0153], the residual activity in test [1] is 93%; in test [3] it was 100%; in test [4] it was 100%; in [5], 100%; in test [6], 98%; in test [7], 62%. Moreover, the residual activity was 86% in test [8]; 91% in test [9]; 89% in test [10]; 86% in test [11]; 96% in [12]; 87% in test [13]. For the same compound, the residual activity in test [14] was 100%; in test [15] it was 84%; in [16], 83%; in test [17] it was 100%; in test [18], 100%; in test [19], 100%. Besides, the residual activity in test [20] was 100%. Also, the inhibition in [2] is 52.4%.

For the compound `CN(C)C(=O)Cn1cc(-c2nc([C@@](C)(c3ccc(-c4cnc(N)nc4)cc3)C3CC3)no2)cn1` [BI 665915], the residual activity in test [1] was 100%; in test [3], 96%; in [4], 100%; in [5], 100%; in test [6], 96%; in test [7] it was 100%. In addition, the residual activity in [8] is 72%; in test [9] it was 100%; in [10], 89%; in test [11], 75%; in test [12], 89%; in test [13], 85%. Also, the residual activity in test [14] is 100%; in [15] it was 63%; in [16] it was 86%; in test [17], 88%; in test [18], 88%; in test [19] it was 93%. Moreover, the residual activity in [20] was 100%. Further, the inhibition in test [2] is 60.7%.
